From US20190298717A1 (BOARD OF REGENTS, THE UNIVERSITY OF TEXAS SYSTEM, priority 2016, published 2019) come the findings set out here.

What is called EC50 is the concentration at which the effect is half-maximal.

Assay [1] deals with SH-SY5Y cells. Kind of assay: H2O2-EC50 of hydralazine and its analogs (protection from H2O2 stress). The assay is classed as cell-based. The following applies: Homo sapiens. As for the experimental part:
To generate intracellular aldehydes, the inventors treated human neuroblastoma cell line (SH-SY5Y) with 100 μM hydrogen peroxide (H2O2) for 24 h. Carbonyl groups were quantified using 2,4-DNPH (dinitrophenylhydrazine) assay.
Cell Viability and Cytotoxicity Assay. Cell growth was analyzed using the MTT cell viability assay. Briefly, at the end of incubation/treatment, MTT reagent was diluted in culture medium and aliquoted into each well. After incubation for 2 hours, the medium was aspirated and DMSO was aliquoted into each well to disrupt the cells and dissolve the intracellular MTT dyes. Absorbance was read at 570 nm wavelength in a 96-well plate reader. Cell toxicity was detected using a LDH cell toxicity assay kit (Promega, Fitchburg Wis.). This is a coupled enzymatic assay that detects a visible color signal initially described by Nachlas et. al. The reagent contained excess concentrations of lactate and NAD+as substrates to drive the LDH reaction and produce NADH. In the presence of diaphorase, NADH drives the enzyme-catalyzed conversion of iodonitro-tetrazolium violet to a red formazan product. Briefly, DMEM medium was withdrawn from each well of the plate after treatment and briefly centrifuged to get rid of floating cells or cell debris. Then, the medium supernatant was mixed with equal volume of substrate/enzyme mixture included in the kit (lactate, NAD+, diaphorase and iodonitro-tetrazolium violet), followed by incubation at room temperature for 15 minutes before the addition of acetic acid to cease the reaction. The absorbance was read at 490 nm in a 96-well plate reader. […] Cell viability assay was performed using CellTiter-Glo assay.

For another assay, the system named is C. elegans. Nature of the assay: Rotenone stress test in worms. It counts as in vivo. The settings on record: in vivo. An excerpt:
The inventors again used rotenone to elicit PD-like changes.
Rotenone stress test. […] After 3 days young adult worms were transferred to fresh NGM plates either preloaded with rotenone alone or rotenone plus any of the abovementioned compounds. Every worm was subjected to prodding test with a worm pick every day. A worm was scored as dead when not responding to three repeated proddings. Survival curve was plotted using Prism 7.

In another assay the test system is Nrf2. The settings on record: SH-SY5Y, 5 μM sulforaphane. How it is done: The inventors quantified Nrf2 protein in treated cells as a first step towards validating the prediction of the Nrf2 pathway.
Nrf2 phosphorylation on serine 40 is a regulatory modification required for Nrf2 translocation to nucleus and downstream protein activation.
Western Blot Analysis. Protein expression was determined by Western blot analysis. Equal amount of protein from each sample was run in Tris-glycine SDS PAGE gel, followed by transferring to PVDF membrane. After blocking the membrane with 5% milk for 1 hour at room temperature, the membrane was incubated further for 2 hours with antibodies specific for target proteins: Nrf2, pNrf2(S40) from Novus (Littleton, Colo.); Keap1, HO-1, NQO1, GCLc, GCLm and lamin B1 from Cell Signaling (Danvers, Mass.); GAPDH from Santa Cruz (Dallas, Tex.); β-Actin from Thermo Fisher (Waltham, Mass.). The membrane was subsequently incubated with species-specific HRP-conjugated secondary antibody followed by incubation with chemiluminescence substrate and imaging. The band intensity of each of the target proteins was quantified using ImageQuant software (GE Healthcare, Sweden). Western blot analysis on worm lystaes was done similarly. […] Equal amounts of protein were run on the gel and SKN-1 protein level was detected using anti-GFP antibody.
Cell Fractionation. Nuclear and cytoplasmic fractions were separated using the protocol and NE-PER Nuclear and Cytoplasmic Extraction Reagents provided by […]. Briefly, the cells were harvested and washed with ice-cold PBS buffer. The cells were resuspended in ice-cold CER-I buffer and incubated on ice for 10 minutes, followed by addition of CER-II buffer and incubation for one more minute on ice. The lysate was centrifuged at 16,000 g for 5 minutes. The supernatant was the cytoplasmic fraction. The pellet obtained was lysed in ice-cold NER buffer to obtain nuclear protein fractions.

In assay [2] the test system is SH-SY5Y cells. Kind of assay: Mitochondrial membrane potential (TMRE). It counts as cell-based, human. The settings on record: hydralazine 0, 10, 20 μM; isoniazid 20 μM. How it is done: Cells were stained by TMRE to tag active mitochondria. Florescence signal was quantified by Flow Jo software. […] ATP levels were measured by bioluminescent detection of luciferase activity. All data are presented normalized to cell number.
The mitochondrial membrane potential was measured as an indicator of cellular energetics and ATP content.

Structures are written as SMILES. Entries after “also recorded” stand apart in the source; their conditions may differ. Where only a bound is given, the exact number is not on record here.

`Cc1nc2c3ccccc3c(NN)nn2n1` [6-Hydrazinyl-2-methyl-[1,2,4]triazolo[5,1-a]phthalazine]: the EC50 in the assay on SH-SY5Y cells [1] was at least 50 µM.

`NNc1nnc(O)c2ccccc12` [4-Hydrazinylphthalazin-1-ol, 4-Hydrazinylphthalazin-1-ol] had an EC50 with SH-SY5Y cells [1] of at least 10 µM.

On to `C#CCOc1nnc(NN)c2ccccc12` [1-Hydrazinyl-4-(prop-2-yn-1-yloxy)phthalazine], for which the EC50 with SH-SY5Y cells [1] turned out to be 4.32 µM.

For the compound `[Cl-].[Na+]` [NaCl], in the assay on C. elegans, the “protection against rotenone-induced death” value is recorded as “No protection; also recorded: did not protect worms”.

As for `CN(C)Nc1nncc2ccccc12`, the EC50 with SH-SY5Y cells [1] is at least 50 µM.

`C[S+]([O-])CCCCN=C=S` (centres unmarked) [sulforaphane]: the “phosphorylation and nuclear localization of Nrf2 (positive control)” value with Nrf2 is on record as “caused similar changes”.

With `Oc1nnc(Cl)c2ccccc12` [4-Chlorophthalazin-1-ol], the EC50 with SH-SY5Y cells [1] is at least 20 µM.

`O=c1[nH]ncc2ccccc12` [Phthalazin-1(2H)-one] came in with an EC50 in the assay on SH-SY5Y cells [1] of at least 50 µM.

Regarding `NNC(=O)c1ccncc1` [Isonicotinohydrazide], the “mitochondrial membrane potential / mitochondrial function (TMRE)” value in the assay with SH-SY5Y cells [2] is given as “did not have a positive effects on mitochondrial function”. The EC50 in the assay with SH-SY5Y cells [1] was at least 50 µM.

In the assay on SH-SY5Y cells [1], `NNc1nnc(Cl)c2ccccc12` [1-Chloro-4-hydrazinyl-phthalazine, 1-Chloro-4-hydrazinylphthalazine] had an EC50 of at least 20 µM.
